{"source": "patent US20220184020A1", "about": "“Polyphenols as Modulators of Platelet Function” (Northeastern University, priority 2019, published 2022)", "key": {"washed platelets": {"system": "washed platelets", "assay": "Platelet total tyrosine phosphorylation (4G10 immunoblot)", "format": "cell-based, human", "details": "in response to CRPXL, TRAP-6 and U46619; RA-treated platelets", "procedure": "The molecular mechanisms involved in the functional impact of RA on platelets was clarified. The RA target FYN is a protein-tyrosine kinase and platelet activation is coordinated by several kinases that phosphorylate adaptors, enzymes, and cytoskeletal proteins downstream of platelet surface receptors. Given this connection, RA may inhibit platelets function by blocking agonist-induced protein tyrosine phosphorylation.\nHuman blood collection was performed as previously described in accordance with the Declaration of Helsinki and ethics regulations with Institutional Review Board approval from Brigham and Women's Hospital (P001526). […] Citrated whole blood underwent centrifugation with a slow break (177×g, 20 minutes) and the PRP fraction was acquired for subsequent experiments. For washed platelets, PRP was incubated with 1 μM prostaglandin E1 (Sigma, P5515) and immediately underwent centrifugation with a slow break (1000×g, 5 minutes). Platelet-poor plasma was aspirated, and pellets resuspended in platelet resuspension buffer (PRB; 10 mM Hepes, 140 mM NaCl, 3 mM KCl, 0.5 mM MgCl2, 5 mM NaHCO3, 10 mM glucose, pH 7.4).\nWashed platelets were pre-treated with RA for 1 hour, followed by agonist stimulation for 10 minutes. Platelets were lysed on ice with RIPA Lysis Buffer System® (Santa Cruz®, sc-24948) and sample supernatants clarified via centrifugation (14,000 rpm, 5 min, 4° C.). […]"}, "platelets": {"system": "platelets", "assay": "Platelet alpha granule secretion (P-selectin surface expression)", "format": "cell-based, human", "details": "in response to U46619; RA pre-treatment 1 hour", "procedure": "To validate the predictive power of the developed framework, direct experimental evidence of the predicted mechanistic role of Rosmarinic acid (RA) in VD was sought. […] Therefore, whether RA influenced platelet activation in vitro was evaluated. As platelets can be stimulated through different activation pathways, RA effects can, in principle, occur in any of them. To test these different possibilities, platelets were pretreated with RA and then activated with: 1) glycoprotein VI by collagen or collagen-related peptide (Collagen/CRPXL); 2) protease-activated receptors-1,4 by thrombin receptor activator peptide-6 (TRAP-6); 3) prostanoid thromboxane receptor by the thromboxane A2 analogue (U46619); and 4) P2Y1/12 receptor stimulation by adenosine diphosphate (ADP). When the network distance between each stimulant receptor and the RA-VD-platelet module (FIG. 11A) was compared, it was observed that the receptors for Collagen/CRPXL, TRAP-6, and U46619 are closer than the random expectation, while the receptor for ADP is more distant (FIG. 11B). It is expected that platelets would be most affected by RA when treated with stimulants whose receptors are most proximal to the RA-VD-platelet module, i.e. Collagen/CRPXL, TRAP-6, and U46619. […] Percent-positive cells were determined by gating on fluorescence intensity compared to unstimulated samples."}}, "data": [{"smiles": "O=C(/C=C/c1ccc(O)c(O)c1)O[C@H](Cc1ccc(O)c(O)c1)C(=O)O", "note": "[rosmarinic acid]", "values": [{"measurement": "total tyrosine phosphorylation", "setting": "washed platelets", "value": "dose-dependent reduction"}, {"measurement": "alpha granule secretion", "setting": "platelets", "value": "dampened"}]}]}
